# Data published in patent US20260226037A1, “MICROTUBULE TARGETING AGENTS” (ARIEL SCIENTIFIC INNOVATIONS LTD., priority 2022, published 2026).
# Assays:
# [1] = system: RPMI8226 cells; experiment: Cell cycle distribution by flow cytometry; assay type: cell-based; conditions: 6 hours; IC50, IC50x2.5 and IC50x5 concentrations
# Description: Cell cycle arrest is a shared consequence of MTAs treatment. The effects of cell cycle distribution were determined in RPMI8226 cells treated for 6 and 18 hours with a range of concentrations of the molecules. The cells were stained with propidium iodide and cell cycle distribution was measured using a cytoFLEX flow cytometer.
# [2] = system: MCF7 cells; experiment: XTT cytotoxicity, MCF7; assay type: cell-based; conditions: Homo sapiens; MCF7, breast adenocarcinoma, non-resistant
# Procedure, shortened: (§1)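 Cells are exposed to compound and viability is scored by XTT.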
# [3] = system: MES-SA cells; experiment: XTT cytotoxicity, MES-SA; assay type: cell-based; conditions: Homo sapiens, poorly differentiated uterine sarcoma, non-resistant
# Procedure, shortened: as §1
# [4] = system: MM1.S cells; experiment: XTT cytotoxicity, MM1.S; assay type: cell-based; conditions: Homo sapiens
# Procedure, shortened: as §1
# [5] = system: RPMI-DOX40 cells; experiment: XTT cytotoxicity, RPMI-DOX40; assay type: cell-based
# Procedure, shortened: as §1
# [6] = system: colchicine binding site on tubulin protein; experiment: EBI competition assay, RPMI-8226 cells; assay type: cell-based; conditions: RPMI-8226 living cells
# [7] = system: RPMI-LR5 cells; experiment: XTT cytotoxicity, RPMI-LR5; assay type: cell-based
# Procedure, shortened: as §1
# [8] = Xenograft murine myeloma model, body weight and toxicity signs; assay type: in vivo; conditions: during the experiment
# Description: In vivo anti-cancer efficacy of the molecules was evaluated in a xenograft murine myeloma model. Male SCID mice (6-8 weeks old) were maintained in accordance with Institutional Animal Care Use Committee guidelines. Mice were housed in the Animal Research Facility of Ariel University and experiments were performed in accordance with approved protocols. During the experiment, RPMI8226 myeloma cells in exponential growth were harvested from culture, washed three times with sterile PBS, counted and resuspended in sterile PBS (1.5×10^7cells mouse/0.1 ml PBS) and subcutaneously injected on the right flank of male C.B-17/IcrHsd-Prkdc-scid, […] mice. After two weeks of cells injection, when tumors reached a size between 30-60 mm3, mice were assigned into different groups (n=3-5) and started receiving treatment. Body weights were determined twice weekly along with tumor volume {V=[length×(width)2]/2}measurements using electronical caliper. Mice were sacrificed when mean tumor volume of vehicle treated group reached 1500 mm3, or mice appeared moribund to prevent unnecessary morbidity.
# The weight of the tumors was measured at the end of the experiment and expressed as mean tumor weight per group. Body weight is expressed as mean body mice weight per group.
# [9] = system: MES-SA/DX5 cells; experiment: XTT cytotoxicity, MES-SA/DX5; assay type: cell-based
# Procedure, shortened: as §1
# [10] = system: MCF7-VP cells; experiment: XTT cytotoxicity, MCF7-VP; assay type: cell-based
# Procedure, shortened: as §1
# [11] = system: RPMI8226 myeloma cells; experiment: Xenograft murine myeloma model, antitumor efficacy; assay type: in vivo, mice
# Description: In vivo anti-cancer efficacy of the molecules was evaluated in a xenograft murine myeloma model. Male SCID mice (6-8 weeks old) were maintained in accordance with Institutional Animal Care Use Committee guidelines. Mice were housed in the Animal Research Facility of Ariel University and experiments were performed in accordance with approved protocols. […] Mice were sacrificed when mean tumor volume of vehicle treated group reached 1500 mm3, or mice appeared moribund to prevent unnecessary morbidity. Mean tumor volume represents the average of tumor volume in each treatment group during the experiment. The weight of the tumors was measured at the end of the experiment and expressed as mean tumor weight per group. Body weight is expressed as mean body mice weight per group. The individual relative tumor volume (RTV) was defined as Vx/V1, where Vx is the mean tumor volume in mm3 at a given time and V1 at the start of treatment. Relative tumor volume is determined by calculating RTV (%) (mean RTV of treated group)/(mean RTV of control group)). Relative tumor volume inhibition is determined by calculating RTVI (%) (1-RTV %)
# [12] = system: NALM6 cells; experiment: XTT cytotoxicity, NALM6; assay type: cell-based; conditions: Homo sapiens, NALM-6
# [13] = system: MM1.R cells; experiment: XTT cytotoxicity, MM1.R; assay type: cell-based
# Procedure, shortened: as §1
# [14] = system: N6/ADR cells; experiment: XTT cytotoxicity, N6/ADR; assay type: cell-based
# [15] = system: RPMI 8226 cells; experiment: XTT cytotoxicity, RPMI 8226; assay type: cell-based; conditions: Homo sapiens, RPMI-8226
# Procedure, shortened: as §1
# [16] = system: RPMI-MR20 cells; experiment: XTT cytotoxicity, RPMI-MR20; assay type: cell-based
# Procedure, shortened: as §1
smiles,measurement,setting,value
"Cc1c(C(=O)OCCCCN)oc2c1C(=O)CC(c1ncco1)C2.Cl (stereo not drawn) [SMS228, 4-((3-methyl-6-(oxazol-2-yl)-4-oxo-4,5,6,7-tetrahydrobenzofuran-2-carbonyl)oxy)butan-1-aminium chloride]",cell cycle arrest,[1],cell cycle arrest in G2M phase
same,IC50,[2],8810 nM
same,IC50,[3],9520 nM
same,IC50,[4],4430 nM
same,IC50,[5],1310 nM
same,IC50 ratio between resistant and non-resistant cells,[5]; RPMI-DOX40 / RPMI 8226,0.853
same,prevention of covalent binding of EBI to the colchicine binding site,[6],did not prevent the covalent binding of EBI to the colchicine binding site
same,IC50,[7],1300 nM
same,IC50 ratio between resistant and non-resistant cells,[7]; RPMI-LR5 / RPMI 8226,0.847
same,body weight and other signs of potential toxicity,[8]; 30 mg/kg subcutaneously,No significant changes in body weight or other signs of potential toxicity
same,body weight and other signs of potential toxicity,[8]; intraperitoneally,No significant changes in body weight or other signs of potential toxicity
same,IC50,"[9]; Homo sapiens, MES-SA/DX5, uterine sarcoma, P-gp overexpression",7410 nM
same,IC50 ratio between resistant and non-resistant cells,[9]; MES-SA/DX5 / MES-SA,0.778
same,IC50,"[10]; Homo sapiens, MCF7-VP, breast adenocarcinoma, MRP overexpression",12300 nM
same,IC50 ratio between resistant and non-resistant cells,[10]; MCF7-VP / MCF7,1.400
same,Relative tumor volume inhibition,"[11]; 15 mg/kg intraperitoneally, after 21 days",20%
same,Relative tumor volume inhibition,"[11]; 30 mg/kg intraperitoneally, after 21 days",23%
same,growth inhibition rate (tumor weight at end of experiment),[11]; 30 mg/kg subcutaneously,70%
same,Relative tumor volume inhibition,"[11]; 30 mg/kg subcutaneously, after 19 days",45%
same,tumor volume lower in the treated group vs vehicle,"[11]; 30 mg/kg subcutaneously, beginning of the experiment",56%
same,tumor volume lower in the treated group vs vehicle,"[11]; 30 mg/kg subcutaneously, day 21",76%
same,Relative tumor volume inhibition,"[11]; 50 mg/kg intraperitoneally, after 21 days",42%
same,decrease of tumor volume as compared to vehicle at the same day,"[11]; 50 mg/kg intraperitoneally, day 7 to 19",30%
same,decrease of tumor volume as compared to vehicle at the same day,"[11]; 50 mg/kg intraperitoneally, day 21",40%
same,growth inhibition rate (tumor weight at end of experiment),[11]; intraperitoneally,44%
same,IC50,[12],350 nM
same,IC50 ratio between resistant and non-resistant cells,[13]; MM1.R / MM1.S,>0.406
same,IC50,[13]; MM.1R,> 1800 nM
same,IC50,[14],360 nM
same,IC50 ratio between resistant and non-resistant cells,[14]; N6/ADR / NALM6,1.029
same,IC50,[15],1530 nM
same,IC50,[16],2230 nM
same,IC50 ratio between resistant and non-resistant cells,[16]; RPMI-MR20 / RPMI 8226,>1.454
